The values below come from patent US20120142730A1 (priority 2010, published 2012).

This data set has as its system subjects with RRMS. The data set is described as follows: BRAVO phase III trial: laquinimod vs placebo and Interferon β-1a (Avonex) reference arm. It counts as in vivo, human. The method, then:
A multinational, multicenter, randomized, parallel-group, clinical trial is performed in subjects with RRMS (“BRAVO”).
Interferon β-1a (Avonex®) 30 mcg intramuscular injection once weekly (400 subjects).
During the study, the following assessments are performed (regardless of the treatment assignment) at the specified time points: • 1. Vital signs (temperature, pulse, blood pressure) are measured at each study visit. • 2. A physical examination is performed at months −1 (screening), (baseline) 1, 3, 6, 12, 18 and 24 (termination/early discontinuation). • 3. The following safety clinical laboratory tests are performed: • a. Hematology and Complete blood count (CBC) with differential—at all scheduled visits. A reticulocyte count is added to the CBC at months 0 (baseline) and 24 (termination/early discontinuation) as well as in occasions of significant decrease in hemoglobin. • b. Serum chemistry (including electrolytes, liver enzymes, direct and total bilirubin, CPK and pancreatic amylase), and urinalysis—at all scheduled visits. • c. Serum TSH, T3 and Free T4 are measured at months 0 (baseline), 6, 12, 18 and 24 (termination/early discontinuation). • d. A rapid urine β-hCG test is performed in women of child-bearing potential at baseline (month 0; all subjects) and at each scheduled study visit thereafter (at site; only subjects assigned to oral treatment). • e. β-hCG in women of child-bearing potential are performed at each study visit. • f. Starting after visit Month 3 a rapid urine β-hCG test is performed in women of child-bearing potential (only those assigned to oral treatment) every 28 (±2) days. The subject is contacted by telephone with 72 hours after the test is scheduled to be performed and asked specific questions regarding the test. In case of suspected pregnancy (positive urine β-hCG test result), the caller makes sure that the study drug has been discontinued and the subject is instructed to arrive to the site as soon as possible with all study drugs. • 4. Markers of inflammation (serum conventional C-reactive protein and fibrinogen) are measured at all scheduled visits. • 5. […] These samples are collected at months 0, 12 and 24. • 6. […] In case of suspected thrombotic event, the subject is requested to arrive at the site immediately for further evaluation. […] ECG is performed at months −1 (screening; additional recording, up to 30 minutes apart are performed if QTc is >450 msec), 0 (baseline; three recordings, 15 minute apart), 1, 2, 3, 6, 12, 18 and 24 (termination/early discontinuation). • 8. Chest X-ray is performed at month −1 (screening) (if not performed within 6 months prior to screening visit). • 9. Adverse Events (AEs) are monitored throughout the study and recorded. • 10. Concomitant medications are monitored throughout the study. • 11. Neurological evaluations, including Neurostatus [Functional Systems (FS), Expanded Disability Status Scale (EDSS; Converted scale), Ambulation Index (AI)] and Timed-25 foot walk test are performed at months −1 (screening), 0 (baseline) and every 3 months thereafter, until termination/early discontinuation. (At screening visit, the Timed-25 foot walk test is performed 3 times, for practicing purposes, as a part of the MSFC). • 12. MS Functional Composite (MSFC) is assessed at months −1 (screening) (three practices for training purposes only), 0 (baseline), 6, 12, 18 and 24 (termination/early discontinuation). • 13. The general health status is assessed by the EuroQoL (EQ5D) questionnaire at months 0 (baseline) and 24 (termination/early discontinuation). • 14. The general health status and quality of life parameters are assessed by the Short-Form general health survey (SF-36) subject-reported questionnaire at month 0 (baseline) and every 6 months thereafter until termination/early discontinuation, inclusive. • 15. Subject-reported fatigue is assessed by the Modified Fatigue Impact Scale (MFIS) at months 0 (baseline), 2, 6, 12, 18 and 24 (termination/early discontinuation). • 16. […]

Where [1] appears, read: 0.6 mg daily oral compared to weekly 30 mcg Interferon β-1a (Avonex).

As for `CCN(C(=O)c1c(O)c2c(Cl)cccc2n(C)c1=O)c1ccccc1` [Laquinimod, laquinimod], for the setting “0.6 mg daily oral”, the “Accumulation of physical disability (MSFC score, time to confirmed progression of EDSS)” value is given as “reduces the accumulation of physical disability”; the “Brain atrophy (percent brain volume change from baseline to end of treatment)” value is recorded as “reduces brain atrophy”; the “Fatigue (MFIS)” value is on record as “reduces the fatigue”; the “General health status (SF-36)” value is reported as “improves the general health status”. Also, under “0.6 mg daily oral”, the “Prevention or delay of relapses” value is “prevents or delays relapses”, the “Quality of life (EuroQoL EQ5D)” value was “improves the quality of life” and the “Severe relapses (requiring hospitalization or intravenous steroid treatment)” value is reported as “reduces the rate of severe relapses or the severity of relapses”. Under setting [1], the Adverse effects entry is recorded as “fewer adverse effects, less severe adverse effects”; the “Safety and tolerability profile” value is “favorable safety and tolerability profile”. For the same compound, the “Number of confirmed relapses” value (0.6 mg daily oral, vs placebo and Avonex arm) is recorded as “reduces the number of confirmed relapses”.
